US10537610B1, “Peptide for inhibition of cancer” (priority 2018, dated 2020)
Non-standard residues stand in square brackets, D forms with d. Residues, ends and D or L forms follow the SMILES beside them.

Experiments:
[1] = tested on: soluble JAM-A; assay: ELISA of JAM-A antigen in plasma, murine 4T1 breast cancer model; format: in vivo, mouse; conditions: 4T1 tumor-bearing BALB/c mice and control littermates; Tβ4 15 μg/kg or TGF-β1 5 μg/kg i.p., 21 days
Procedure: All in vivo experiments were carried on female BALB/c mice aged 8 to 12 weeks purchased from Animal House of Institute of Biology, University of Bialystok (Bialystok, Poland). The mice were housed under standard conditions at the Animal House of the Medical University of Lodz (Lodz, Poland). All animal procedures and protocols were conducted in accordance with the Guide for the Care and Use of Laboratory Animals of the National Animal Care Committee and were approved by Local Ethical Committee for Animal Research in Lodz (license number 9/LB51/2017 from Jun. 2, 2017). All efforts were made to minimize animal suffering.
Murine 4T1 cells were purchased from the American Type Culture Collection (ATCC, Manassas, Va., USA). The cells were maintained in RPMI-1640 (ATCC) with 10/o fetal bovine serum (FBS) and cultured in tissue culture flasks to 80% confluence. […]
The unbound biotinylated antibody was washed away and HRP-conjugated streptavidin was added to the wells. […] Regarding the both protocols, the enzyme-substrate (HRP-TMB) reaction was terminated by the addition of a sulfuric acid solution and the color change was measured spectrophotometrically at a wavelenght of 450 nm using the Wallac 1420 VICTOR2 Multilabel Counter (PerkinElmer). The concentration of target antigen in the samples was determined by comparing the optical density of the samples to the standard curve.

[2] = tested on: MCF-10A cells on HMEC-1 cells; assay: Adhesion of non-tumorigenic MCF-10A cells to endothelial monolayer under static conditions; format: cell-based, human; conditions: P4D 500 μM; TNF/IFN-treated HMEC-1
Procedure: The peptides were synthesized and purified by LifeTein, LLC (Somerset, N.J., USA) with the purity of not less than 95% using PeptideSyn™ technology that incorporates solid phase fluorenylmethyloxycarbonyl (Fmoc) chemistry. The cells were treated with the peptide P4D for 0, 1, 5, or 24 hours at a concentration of 500 μM. The cells treated with the Scrambled peptide P4D (Scr; 500 μM; 0, 1, 5, or 24 hours incubation time) were used as a negative control. In order to provide the positive control of the junctions tightening for impedance-based measurements of endothelial permeability, the cells were incubated with the potent activator of TJ assembly, forskolin (FSK; BioShop, Burlington, ON, Canada), for 24 hours at a concentration of 10 μM.
Adhesion of human breast cancer (MCF-7, MDA-MB-231) or non-tumorigenic (MCF-10A) human breast cells to HMEC-1 cells was performed in 24-well plates. HMEC-1 cells were seeded to the bottom of the fibronectin-coated wells 2 days before the assay to form the monolayer and subjected to a suitable treatment. Breast cancer or non-tumorigenic cells were starved overnight and on the day of the assay were labeled with CellTracker Green CMFDA Dye for 30 minutes. […] The adherent cells were lysed by 2% SDS and the fluorescence was measured using the Wallac 1420 VICTOR2 Multilabel Counter (PerkinElmer) at 492 nm of excitation and 517 nm of emission wavelengths.

Compound	JAM-A level in plasma [1]	adhesion of MCF-10A cells to cytokine-treated endothelium [2]
Thymosin β4 (SDKPDMAEIEKFDKSKLKKTETQEKNPLPSKETIEQEKQAGES; not fully specified; Thymosin beta-4; UniProt P62328 2-44, looked up) [Tβ4]	decrease JAM-A level in plasma	
CC(C)[C@H](NC(=O)[C@H](CO)NC(=O)[C@H](N)CCCCN)C(=O)N[C@H](C(=O)N[C@H](CCCNC(=N)N)C(=O)N[C@@H](CCC(=O)O)C(=O)N[C@@H](CC(=O)O)C(=O)N[C@H](C(=O)NCC(=O)N[C@H](C(=O)N[C@@H](Cc1ccc(O)cc1)C(=O)N[C@H](C(=O)N[C@@H](CS)C(N)=O)[C@@H](C)O)[C@@H](C)O)[C@@H](C)O)[C@@H](C)O [Peptide P4D, NH2-(dK)-SVT-(dR)-EDTGTYTC-CONH2] (H-[dK]SVT[dR]EDTGTYTC-NH2)		markedly inhibited
